In test [1] the test system is gastric secretion. In words: Antisecretory test (pyloric ligation, gastric secretion volume). The format is in vivo, Wistar rats (adult female). The following applies: Rattus norvegicus; orally 1 hour prior to pyloric ligation or subcutaneously immediately after; 5 h after ligation; maximum dosage 10 mg./kg.; read-out: Antisecretory Activity ED50 (50% reduction in the volume of gastric secretion). The procedure:
Adult female Wistar rats weighing 140 to 160 g. were starved for 24 hours prior to the test. The animals were anaesthetized with ether, shaved on the abdomen, and a small midline incision made. The pylorus was exposed, ligated, and the wound subsequently closed with wound clips. The animals were treated with the test compound administered either orally 1 hour prior to pyloric ligation or subcutaneously immediately after ligation. The test compound was administered in distilled water or 0.5% methyl cellulose. Six animals were used for each treatment. Five hours following the ligation, the animals were sacrificed, the stomachs were carefully removed and opened, and the gastric contents measured for volume and titratable acidity. […] A maximum dosage of 10 mg./kg. was used for the test compounds.

The subject of test [2] is charcoal entering the cecum. Kind of test: Antimotility test (charcoal entering the cecum). The class given is in vivo, mice (adult male). Particulars: Mus musculus; oral, 1 h before charcoal; examined 3.5 h after charcoal; maximum dosage 30 mg./kg.; read-out: Antimotility ED50 (prevented the charcoal from entering the cecum in 50% of the treated mice).
Method: Adult male mice weighing in the range of 20 to 30 g. were starved for 24 hours prior to the test. The animals were then treated orally with the test compound dissolved in water or suspended in methyl cellulose. One hour later, each animal was dosed with 0.2 ml. of a charcoal suspension consisting of 5% activated charcoal suspended in 0.25% methyl cellulose. The animals were sacrificed 3.5 hours after the charcoal administration and their cecums examined for the presence or absence of charcoal. […] A maximum dosage of 30 mg./kg. was used.
Test [3] has as its system diarrhea. In words: Antidiarrheal test (castor oil diarrhea). The format is in vivo, Swiss-Webster mice (adult male). The following applies: Mus musculus; oral, 1 h before castor oil; diarrhea noted 3 h later; maximum 30 mg./kg.; read-out: Antidiarrheal ED50 (inhibited diarrhea in 50% of the treated mice). How it is done: In this test adult male Swiss-Webster mice weighing 30 to 40 g. were employed, using 6 mice per treatment. The test compound was administered orally in a dosage series with a maximum of 30 mg./kg. either in water if soluble or else in 0.5% methyl cellulose. One hour after treatment, each animal received a single dose of 0.3 ml. of castor oil, administered orally. The animals were then individually caged and provided food and water.

Consider `Cc1ccc(NC(=S)N(CCO)CCO)c(C)c1` [AM], for which the ED50 in test [1] is above 10 mg/kg; in test [2] it was above 30 mg/kg; in test [3], above 30 mg/kg.

For the molecule `Cc1cccc(C)c1NC(=S)NCCO` [H], the ED50 in test [1] is 0.5 to 1 mg/kg; in test [2] it was 2.4 mg/kg; in test [3] it was 4.3 mg/kg.

As for `Cc1ccc(C)c(NC(=S)NCCO)c1` [G], the ED50 in test [1] was above 10 mg/kg; in test [2], above 30 mg/kg; in test [3], above 30 mg/kg.

Consider `CC(C)[N+](C)(CCOC(=O)C1c2ccccc2Oc2ccccc21)C(C)C` [Pro-Banthine, propantheline bromide, reference compound], for which the results for the ED50 in test [1], in test [2] and in test [3] were 8 mg/kg, 14.7 mg/kg and above 80 mg/kg, respectively.

Consider `Cc1ccc(NC(=S)N(C)C)c(C)c1` [AB], for which the ED50 in test [1] is above 10 mg/kg; in test [2] it was 4.4 mg/kg; in test [3], 3.8 mg/kg.

`Cc1ccc(NC(=S)N(C)CCO)c(C)c1` [AL]: the ED50 in test [1] was above 10 mg/kg; in test [2], above 30 mg/kg; in test [3] it was above 30 mg/kg.

By ED50 is commonly meant the dose that gives a 50% effect, or the effect in half of the subjects.
